Test results: patent US20250073189A1, “NATURAL DIETARY SUPPLEMENT FOR MENTAL HEALTH” (Mind Pop LLC, priority 2023, published 2025)

How the values were obtained:
[1] = Inventors' unspecified tests and research on single ingredients of the supplement; format: in vivo
Source text: Caffeine is far and away the most widely known compound in the composition, however, the present invention uses the caffeine as a clean source of energy to go along with methylliberine and theacrine.

[2] = Inventors' dose testing of theacrine (50-400 mg); format: in vivo; conditions: according to research and trials; unlike caffeine
Experimental: Theacrine advances the beneficial effects of the compounds of this invention in unexpected ways. […] Throughout the studies pertaining to this invention, it has been discovered that low blood pressure is paramount for the proper firing of synapses and proper chemical balance in the brain. Testing in doses from 50-400 mg of theacrine have narrowed the optimum range to 125-150 mg, and more particularly about 140 mg. […] This is made possible by the waste removal from phosphatidylserine and enhanced by alpha-glycerylphosphorylcholine which spreads these effects beyond the brain, throughout the entire body.

Question: Which cognitive effects ([1]; 70 mg of caffeine) does the source give for Cn1c(=O)c2c(ncn2C)n(C)c1=O [Caffeine, reference compound] here?
Answer: tremendous cognitive effects

Question: Which “effect on muscular output and reaction times” value ([1]; many tests and much research) does the source give for C[N+](C)(C)CCOP(=O)([O-])OC[C@H](O)CO [alpha-glycerylphosphorylcholine, Alpha-glycerylphosphorylcholine] here?
Answer: increase muscular output and reaction times

Question: With COc1nc2c(c(=O)n1C)n(C)c(=O)n2C [Methylliberine] as the molecule, how does the “energy boost in combination with the other ingredients” value ([1]; at precisely 140 mg, with caffeine and theacrine) read?
Answer: unexpected energy boost

Question: With Cn1c(=O)c2c(n(C)c1=O)n(C)c(=O)n2C [Theacrine] as the molecule, how does the “effect on blood pressure” value [2] read?
Answer: does not seem to significantly affect blood pressure

Question: For Phosphatidylserine, which “effectiveness as supplementary ingredient (membrane functions, nutrient entry, cortisol modulation, waste exit)” value ([1]; in vivo) is on record?
Answer: unexpectedly effective
